Reference: US20160199351A1, “COMPOSITIONS AND METHODS FOR INHIBITING FUNGAL INFECTIONS” (priority 2015, published 2016)
Read-outs that look alike come from different tables or passages of the source.

Legend:
Histoplasma capsulatum = assay type: cell-based; settings: 24-hour treatment
Aspergillus fumigatus = Aspergillus fumigatus mycelia growth dose-response (MIC by linear regression); assay type: cell-based; settings: for MIC: Aspergillus fumigatus, FIG. 2A dose-response, linear regression
Rhizopus oryzae = test: MIC, CLSI M38-A2 broth dilution (Table 1); assay type: cell-based
Lomentospora prolificans = test: MIC, CLSI M38-A2 broth dilution (Table 1); assay type: cell-based; settings: isolate LP1, 48 hours
[1] = system: Coccidioides immitis/posadasii; assay type: cell-based
Blastomyces dermatitidis = test: MIC (Table 6); assay type: cell-based; settings: for MIC: read-out: MIC 100%
Coccidioides sp. = test: microbe, parasite or virus in culture; assay type: cell-based
Scedosporium sp. = test: MIC (Table 5)
C. parapsilosis = test: MIC against Candida species (Table 4)

NCC(=O)Nc1ccc(-n2nc(C(F)(F)F)cc2-c2ccc3c(ccc4ccccc43)c2)cc1 [AR-12, 2-amino-N-(4-(5-(phenanthren-2-yl)-3-(trifluoromethyl)-1H-pyrazol-1-yl)phenyl)acetamide]
1 µg/mL: MIC50 (Blastomyces dermatitidis; isolate BD3, 72/192 hrs)
2 µg/mL: MIC50 (Blastomyces dermatitidis; isolate BD2, 72/192 hrs) | MIC (Blastomyces dermatitidis; isolate BD2, 72/192 hrs) | MIC (Blastomyces dermatitidis; isolate BD3, 72/192 hrs) | MIC50 (Coccidioides sp.; Coccidioides) | MIC 50% (Coccidioides sp.; isolate COCCI-1, 72/192 hrs) | MIC 50% (Coccidioides sp.; isolate COCCI-3, 72/192 hrs) | MIC50 (Scedosporium sp.; 24 h, isolate S-2, 24 hrs) | MIC (Scedosporium sp.; 24 h, read-out: MIC 100%, isolate S-2, 24 hrs) | MIC50 (Scedosporium sp.; isolate S-1, 48/72 hrs) | MIC50 (C. parapsilosis; 24 h, isolate CP-1, 24 hrs) | MIC50 (C. parapsilosis; 24 h, isolate CP-2, 24 hrs) | MIC50 (C. parapsilosis; 24 h, isolate CP-3, 24 hrs) | MIC50 (C. parapsilosis; 24 h, isolate CP-4, 24 hrs) | MIC50 (C. parapsilosis; 24 h, isolate CP-5, 24 hrs) | MIC50 (C. parapsilosis; 24 h, isolate CP-6, 24 hrs) | MIC50 (C. parapsilosis; 24 h, isolate CP-7, 24 hrs) | MIC50 (C. parapsilosis; 24 h, isolate QC) | MIC (C. parapsilosis; 24 h, read-out: MIC 100%, isolate CP-1, 24 hrs) | MIC (C. parapsilosis; 24 h, read-out: MIC 100%, isolate CP-5, 24 hrs) | MIC (C. parapsilosis; 24 h, read-out: MIC 100%, isolate CP-7, 24 hrs) | MIC (C. parapsilosis; 24 h, read-out: MIC 100%, isolate QC, 24 hrs) | MIC50 (C. parapsilosis; 48 h, isolate CP-7, 48 hrs) | MIC50 (C. parapsilosis; 48 h, isolate QC)
8 µg/mL: MIC (Coccidioides sp.; Coccidioides, read-out: MIC 100%, isolate COCCI-2, 72/192 hrs)
8 to 40 µM: concentration that effectively prevents growth (Aspergillus fumigatus; stated for all three fungi)
loss of yeast viability: viability staining of yeasts (Histoplasma capsulatum; ethidium bromide / fluorescein staining)
4 gg/m1: MIC 50% (Rhizopus oryzae; isolate RO1, 24 hours) | MIC 100% (Rhizopus oryzae; isolate RO1, 24 hours) | MIC 50% (Rhizopus oryzae; isolate RO2, 24 hours) | MIC 100% (Rhizopus oryzae; isolate RO2, 24 hours) | MIC 50% (Rhizopus oryzae; isolate RO3, 24 hours) | MIC 100% (Rhizopus oryzae; isolate RO3, 24 hours)
2 gg/m1: MIC 50% (Lomentospora prolificans) | MIC 100% (Lomentospora prolificans) | MIC 50% ([1]; isolate Cocci3, 48 hours) | MIC 100% ([1]; isolate Cocci3, 48 hours)
about 1000 fold: reduction of fungal viability (Histoplasma capsulatum; then growth in absence of drug)
4 µg/mL: MIC (Coccidioides sp.; Coccidioides, read-out: MIC 100%, isolate COCCI-1, 72/192 hrs) | MIC (Coccidioides sp.; Coccidioides, read-out: MIC 100%, isolate COCCI-3, 72/192 hrs) | MIC50 (Scedosporium sp.; isolate S-2, 48/72 hrs) | MIC (Scedosporium sp.; read-out: MIC 100%, isolate S-1, 48/72 hrs) | MIC (Scedosporium sp.; read-out: MIC 100%, isolate S-2, 48/72 hrs) | MIC (C. parapsilosis; 24 h, read-out: MIC 100%, isolate CP-2, 24 hrs) | MIC (C. parapsilosis; 24 h, read-out: MIC 100%, isolate CP-3, 24 hrs) | MIC (C. parapsilosis; 24 h, read-out: MIC 100%, isolate CP-4, 24 hrs) | MIC (C. parapsilosis; 24 h, read-out: MIC 100%, isolate CP-6, 24 hrs) | MIC50 (C. parapsilosis; 48 h, isolate CP-1, 48 hrs) | MIC50 (C. parapsilosis; 48 h, isolate CP-2, 48 hrs) | MIC50 (C. parapsilosis; 48 h, isolate CP-3, 48 hrs) | MIC50 (C. parapsilosis; 48 h, isolate CP-4, 48 hrs) | MIC50 (C. parapsilosis; 48 h, isolate CP-5, 48 hrs) | MIC50 (C. parapsilosis; 48 h, isolate CP-6, 48 hrs) | MIC (C. parapsilosis; 48 h, read-out: MIC 100%, isolate CP-1, 48 hrs)
0.25 µg/mL: MIC50 (Blastomyces dermatitidis; isolate BD1, 72/192 hrs)
1 gg/m1: MIC 50% ([1]; isolate Cocci1, 48 hours) | MIC 100% ([1]; isolate Cocci1, 48 hours) | MIC 50% ([1]; isolate Cocci2, 48 hours) | MIC 100% ([1]; isolate Cocci2, 48 hours)
8.6 µM: MIC (Aspergillus fumigatus; read-out: MIC, concentration resulting in 90% inhibition of mycelia growth)
0.5 µg/mL: MIC (Blastomyces dermatitidis; isolate BD1, 72/192 hrs)
3.1 µM: MIC (Aspergillus fumigatus; read-out: MIC, concentration resulting in 50% inhibition of mycelia growth)
